Values quoted from earlier work in patent publication US20260183398A1, “RADIOLUMINESCENT NANOPARTICLES FOR RADIATION-TRIGGERED CONTROLLED RELEASE DRUGS” (Purdue Research Foundation, priority 2017, published 2026).

What was measured:
[1] = reported
[2] = PTX intratumorally delivered to mouse xenografts in the polymer encapsulated form
[3] = systemic chemotherapy, about 200 mg/m2

For CC(=O)O[C@H]1C(=O)[C@@]2(C)[C@H]([C@H](OC(=O)c3ccccc3)[C@]3(O)C[C@H](OC(=O)[C@H](O)[C@@H](NC(=O)c4ccccc4)c4ccccc4)C(C)=C1C3(C)C)[C@]1(OC(C)=O)CO[C@@H]1C[C@@H]2O [PTX, paclitaxel], the “in vitro IC90” value [1] is given as “≈ 0.09 μg PTX per mg tumor”, the “in vitro IC90 (PTX concentration giving rise to 90% cell kill in vitro)” value [1] is given as “about 90 μg/mL” and the “tumor elimination rate constant ket” value [2] is given as 0,005 h^−1. The “patients with dermatological side effects (skin, hair, nail)” value [3] was 86.8%.
